Measured values taken from US4791200A, “2-substituted-4-aryl-substituted thiazoles” (Ortho Pharmaceutical Corporation, priority 1987, dated 1988).
Read-outs that look alike come from different tables or passages of the source.

Columns and labels:
[1] = test system: parietal cells; experiment: Isolated Parietal Cell Assay (14C-aminopyrine accumulation, histamine or dibutyryl cAMP stimulated); type: cell-based, rabbit; conditions: Oryctolagus cuniculus
Procedure: The isolated parietal cell assay was conducted using the procedures of Batzri, S. et al., Biochemica et Biophysica Acta 508, 328 (1978) and Soll, A. H. Am. J. Physiol. 238, G366 (1980). Basically, parietal cells were isolated from the fundic mucosa of rabbit stomachs by a four-stage collagenase digestion process. The supernatant fractions from the last two stages of this process contain the individual parietal cells. This cell suspension was centrifuged and reconstituted in a modified Hank's buffer to contain 1-2×10^6 cells/ml. […] This accumulation was stimulated by histamine and was blocked by H2 antagonists. The cells were incubated with 0.4-0.5×10^6 cpm ^14 C-AP, with various concentrations of histamine as a stimulant, 1×10^-5 M isobutylmethylxanthine, and the test compound added in a 20 μl volume of buffer or DMSO. The flasks were incubated in a shaking water bath at 37° C. for 20 minutes. Two aliquots were then taken from each flask and cell pellets were collected by centrifugation. The pellets were solubilized with Protosol (New England Nuclear) and radioactivity determined by liquid scintillation spectrometry. Data is presented as the IC50 vhist, the concentration of compound required to inhibit ^14 C-AP accumulation in the histamine stimulated parietal cell by 50%.
When dibutyryl cAMP was used to stimulate the cells instead of histamine, a similar inhibition of ^14 C-AP accumulation was measured and the data are presented as the IC50 vcAMP, the concentration required to inhibit ^14 C-AP accumulation in the cAMP stimulated parietal cell by 50%.

[2] = target: T1, parietal cell H^+ K^+ ATPase (Oryctolagus cuniculus, UniProt P27112); experiment: Inhibition of Parietal Cell H^+ K^+ ATPase; type: biochemical, New Zealand white rabbits; conditions: read-out: % Inhibition at Concentration; for inhibition at 100 µM: at 10^-4 M
T1 construct: determined in fundic mucosa from New Zealand white rabbits which were homogenized; from tissue; host or cells: fundic mucosa of New Zealand white rabbits, homogenized; membrane protein
Procedure: The activity was measured in a 1 ml incubation volume containing 50 mM Tris pH 7.4, 2 mM MgCl2, 2 mM Na2 ATP, with or without 20 mM KCl and vehicle control (dimethylsulfoxide) or test compound added in a 0.02 ml volume. Typically, 20-50 μg membrane protein was added and the tubes were preincubated with test compound for 10 minutes at 37° C. Substrate, Na2 ATP, was then added and the tubes were incubated for another 15 minutes at 37° C. The reaction was stopped by the addition of 1 ml 14% trichloroacetic acid and the samples were centrifuged at 2,000 ×g for 10 minutes. The amount of inorganic phosphate present in an aliquot of supernatant was determined. H^+ K^+ ATPase activity was determined after correcting for the basal (Mg^++ only) enzyme activity present in the membrane preparation.

[3] = test system: acid output (gastric secretion); experiment: Gastric Secretion (pylorus ligation, modified Shay); type: in vivo, male Charles River Sprague Dawley derived rats; conditions: i.d. or s.c., 4 hours after ligation; for % Acid Secreted at mpK: at 20 mpK
Procedure: The inhibitory activity of the compounds on acid output was tested using pylorus ligation in a modification of the procedure of Shay, H. et al., Gastroenterology 26, 906 (1954). Basically, male Charles River Sprague Dawley derived rats weighing 150-300 grams were deprived of food but not water for 18-24 hours prior to use. Water was withheld during the experiment, however. The rats were weighed, anesthetized with ether and the pylorus ligated according to the method of Shay et al., supra. Treatment or vehicle control was then administered intraduodenally (i.d.) or subcutaneously (s.c.). Rats were housed two/cage and sacrificed with CO2 four hours after ligation. The stomachs were removed, rinsed, and contents emptied into a graduated centrifuge tube. The tubes were centrifuged, the volume of gastric juice recorded, and any samples obviously contaminated by feces, food or blood were eliminated. A 1 ml aliquot of gastric juice was titrated with 0.1N NaOH to a pH of 7.0-7.4. The volume of gastric juice secreted, the acid concentration, and the product of the volume times the concentration, i.e., the total amount of acid secreted, were measured.

[4] = 20 min, histamine stimulated, 37° C., 20 minutes, read-out: IC50 vhist (inhibition of 14C-AP accumulation in the histamine stimulated parietal cell)
[5] = dibutyryl cAMP stimulated, read-out: IC50 vcAMP (inhibition of 14C-AP accumulation in the cAMP stimulated parietal cell)

T1 sequence (P27112 2-1035 limits assumed): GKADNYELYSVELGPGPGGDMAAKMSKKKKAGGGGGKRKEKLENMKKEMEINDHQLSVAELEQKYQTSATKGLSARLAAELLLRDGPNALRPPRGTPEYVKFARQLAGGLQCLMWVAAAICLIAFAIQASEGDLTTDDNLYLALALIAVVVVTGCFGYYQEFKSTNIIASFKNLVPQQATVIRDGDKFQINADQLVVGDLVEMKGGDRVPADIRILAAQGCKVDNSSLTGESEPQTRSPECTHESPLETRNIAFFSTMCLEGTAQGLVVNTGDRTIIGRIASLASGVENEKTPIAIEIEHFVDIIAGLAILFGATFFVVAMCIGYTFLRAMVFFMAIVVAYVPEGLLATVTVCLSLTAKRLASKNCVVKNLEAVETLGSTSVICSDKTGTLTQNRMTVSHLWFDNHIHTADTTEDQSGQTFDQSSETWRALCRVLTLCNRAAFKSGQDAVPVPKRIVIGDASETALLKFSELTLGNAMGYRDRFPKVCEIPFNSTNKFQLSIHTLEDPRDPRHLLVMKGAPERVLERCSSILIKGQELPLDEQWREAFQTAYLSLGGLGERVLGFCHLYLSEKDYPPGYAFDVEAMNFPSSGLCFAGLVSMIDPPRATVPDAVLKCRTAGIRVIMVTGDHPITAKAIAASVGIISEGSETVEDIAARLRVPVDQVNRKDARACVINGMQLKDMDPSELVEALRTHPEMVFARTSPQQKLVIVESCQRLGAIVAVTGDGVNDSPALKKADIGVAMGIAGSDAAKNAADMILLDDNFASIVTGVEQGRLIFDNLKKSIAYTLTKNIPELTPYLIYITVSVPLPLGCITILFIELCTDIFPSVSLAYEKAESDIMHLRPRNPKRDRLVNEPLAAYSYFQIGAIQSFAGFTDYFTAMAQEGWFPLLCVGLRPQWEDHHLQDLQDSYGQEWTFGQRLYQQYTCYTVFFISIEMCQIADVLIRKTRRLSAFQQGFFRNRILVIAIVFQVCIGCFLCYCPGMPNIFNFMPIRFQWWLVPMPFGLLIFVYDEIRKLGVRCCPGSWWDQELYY
T1 sequence (P18597 whole entry partner): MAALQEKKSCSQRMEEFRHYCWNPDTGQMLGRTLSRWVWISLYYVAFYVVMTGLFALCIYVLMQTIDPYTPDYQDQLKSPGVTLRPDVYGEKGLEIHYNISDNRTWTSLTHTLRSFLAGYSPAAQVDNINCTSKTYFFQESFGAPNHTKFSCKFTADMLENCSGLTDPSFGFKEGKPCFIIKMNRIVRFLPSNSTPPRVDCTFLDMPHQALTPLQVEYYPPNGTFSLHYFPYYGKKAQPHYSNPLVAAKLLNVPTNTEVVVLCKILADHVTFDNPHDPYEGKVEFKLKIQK

Row | IC50 [1, 4] [nM] | inhibition at 100 µM [2] [%] | IC50 [1, 5] [nM] | inhibition at 10.5 µM ([2]; at 10.5 μM) [%] | SMILES | response vs control in vivo at 40 mg/kg ([3]; Rattus norvegicus, at 40 mpK, read-out: % Acid Secreted at mpK) [%] | % Acid Secreted at mpK [3] [%]
1 | 10000 | 36 |  |  | c1ccc(-c2nc(-c3ccc(OCCCn4cncn4)cc3)cs2)cc1 [Example 24, 4-[4-(1,2,4-Triazol-1-yl)propoxyphenyl]-2-phenylthiazole] | 83 | 
2 | 340 | 5 | 240 |  | CCCCN(CCCC)CCCOc1ccc(-c2nc(-c3ccccc3)sc2CC)cc1 [Example 25, 5-Ethyl-4-(4-dibutylaminopropoxyphenyl)-2-phenylthiazole] |  | 8
3 | 300 | 23 | 290 |  | CCCCN(CCCC)CCCOc1ccc(-c2csc(-c3ccccc3)n2)cc1C [Example 26] |  | 64
4 | 320 |  | 290 | 50 | c1ccc(-c2nc(-c3cccc(OCCCn4ccnc4)c3)cs2)cc1 [Example 27] |  | 13
